Results: the NIST ThermoML archive (doi:10.1021/je200757a)
± gives the expanded uncertainty stated by the source.

Columns and labels:
[1] = for viscosity / mass density: 101 kPa, Liquid; for viscosity: Capillary tube (Ostwald / Ubbelohde) method; for mass density: Vibrating tube method
[2] = refractive index (Na D-line) (dimensionless); details: 101.33 kPa, Liquid
[3] = xn = mol fraction of the nth substance listed; details: x1 = 1; for viscosity / mass density: 101 kPa, Liquid; for viscosity: Capillary tube (Ostwald / Ubbelohde) method; for mass density: Vibrating tube method
[4] = refractive index (Na D-line) (dimensionless); xn = mol fraction of the nth substance listed; details: 101 kPa, Liquid, x1 = 1

Row | SMILES | viscosity ([1]; 293.15 K) | mass density ([1]; 293.15 K) | viscosity ([1]; 298.15 K) | mass density ([1]; 298.15 K) | viscosity ([1]; 303.15 K) | mass density ([1]; 303.15 K) | viscosity ([1]; 313.15 K) | mass density ([1]; 313.15 K) | refractive index ([2]; 293.15 K) | refractive index ([2]; 303.15 K) | viscosity ([3]; 293.15 K) | mass density ([3]; 293.15 K) | viscosity ([3]; 298.15 K) | mass density ([3]; 298.15 K) | viscosity ([3]; 303.15 K) | mass density ([3]; 303.15 K) | viscosity ([3]; 313.15 K) | mass density ([3]; 313.15 K) | refractive index ([4]; 293.15 K) | refractive index ([4]; 303.15 K) | other results
1 | CCCCCCCCCCCC [dodecane] | 1.507 ± 0.012 mPa·s | 748.6 ± 0.2 kg/m3 | 1.377 ± 0.011 mPa·s | 745 ± 0.2 kg/m3 | 1.266 ± 0.01 mPa·s | 741.4 ± 0.2 kg/m3 | 1.084 ± 0.009 mPa·s | 734.1 ± 0.2 kg/m3 | 1.4219 ± 0.0013 | 1.4168 ± 0.0013 | – | – | – | – | – | – | – | – | – | – | surface tension liquid-gas ([1]; 293.15 K): 24.07 ± 0.34 mN/m; surface tension liquid-gas ([1]; 303.15 K): 23.67 ± 0.34 mN/m
2 | CCCCCCCCCCCC [dodecane] + C1C[C@@H]2[C@H]3CC[C@H](C3)[C@@H]2C1 | – | – | – | – | – | – | – | – | – | – | 1.507 ± 0.012 mPa·s | 748.6 ± 0.2 kg/m3 | 1.377 ± 0.011 mPa·s | 745 ± 0.2 kg/m3 | 1.266 ± 0.01 mPa·s | 741.4 ± 0.2 kg/m3 | 1.084 ± 0.009 mPa·s | 734.1 ± 0.2 kg/m3 | 1.4219 ± 0.0013 | 1.4168 ± 0.0013 | surface tension liquid-gas ([3]; 293.15 K): 24.07 ± 0.34 mN/m; surface tension liquid-gas ([3]; 303.15 K): 23.67 ± 0.34 mN/m
3 | C1C[C@@H]2[C@H]3CC[C@H](C3)[C@@H]2C1 [exo-tetrahydrodicyclopentadiene] | 3.077 ± 0.035 mPa·s | 935.3 ± 0.8 kg/m3 | 2.784 ± 0.032 mPa·s | 931.4 ± 0.8 kg/m3 | 2.525 ± 0.029 mPa·s | 927.5 ± 0.8 kg/m3 | 2.112 ± 0.024 mPa·s | 919.6 ± 0.7 kg/m3 | 1.4877 ± 0.0013 | 1.4832 ± 0.0013 | – | – | – | – | – | – | – | – | – | – | surface tension liquid-gas ([1]; 293.15 K, Capillary rise): 31.86 ± 0.38 mN/m; surface tension liquid-gas ([1]; 303.15 K, Capillary rise): 31.09 ± 0.38 mN/m
4 | CCCCCCCCC [nonane] | 0.733 ± 0.006 mPa·s | 717.8 ± 0.3 kg/m3 | 0.687 ± 0.006 mPa·s | 713.9 ± 0.3 kg/m3 | 0.647 ± 0.005 mPa·s | 710 ± 0.3 kg/m3 | 0.579 ± 0.005 mPa·s | 702.1 ± 0.3 kg/m3 | 1.4048 ± 0.0013 | 1.4001 ± 0.0013 | – | – | – | – | – | – | – | – | – | – | surface tension liquid-gas ([1]; 293.15 K, Capillary rise): 22.2 ± 0.24 mN/m; surface tension liquid-gas ([1]; 303.15 K, Capillary rise): 21.41 ± 0.23 mN/m
5 | CCCCCCCCC [nonane] + C1C[C@@H]2[C@H]3CC[C@H](C3)[C@@H]2C1 | – | – | – | – | – | – | – | – | – | – | 0.733 ± 0.006 mPa·s | 717.8 ± 0.3 kg/m3 | 0.687 ± 0.006 mPa·s | 713.9 ± 0.3 kg/m3 | 0.647 ± 0.005 mPa·s | 710 ± 0.3 kg/m3 | 0.579 ± 0.005 mPa·s | 702.1 ± 0.3 kg/m3 | 1.4048 ± 0.0013 | 1.4001 ± 0.0013 | surface tension liquid-gas ([3]; 293.15 K, Capillary rise): 22.2 ± 0.24 mN/m; surface tension liquid-gas ([3]; 303.15 K, Capillary rise): 21.41 ± 0.23 mN/m
6 | CCCCCCCCCCCCC [tridecane] | 1.894 ± 0.014 mPa·s | 756.5 ± 0.2 kg/m3 | 1.726 ± 0.013 mPa·s | 752.9 ± 0.2 kg/m3 | 1.577 ± 0.012 mPa·s | 749.3 ± 0.2 kg/m3 | 1.325 ± 0.01 mPa·s | 742.2 ± 0.2 kg/m3 | 1.4253 ± 0.0013 | 1.4213 ± 0.0013 | – | – | – | – | – | – | – | – | – | – | surface tension liquid-gas ([1]; 293.15 K): 24.79 ± 0.34 mN/m; surface tension liquid-gas ([1]; 303.15 K): 24.08 ± 0.34 mN/m
7 | CCCCCCCCCCCCC [tridecane] + C1C[C@@H]2[C@H]3CC[C@H](C3)[C@@H]2C1 | – | – | – | – | – | – | – | – | – | – | 1.894 ± 0.014 mPa·s | 756.5 ± 0.2 kg/m3 | 1.726 ± 0.013 mPa·s | 752.9 ± 0.2 kg/m3 | 1.577 ± 0.012 mPa·s | 749.3 ± 0.2 kg/m3 | 1.325 ± 0.01 mPa·s | 742.2 ± 0.2 kg/m3 | 1.4253 ± 0.0013 | 1.4213 ± 0.0013 | surface tension liquid-gas ([3]; 293.15 K): 24.79 ± 0.34 mN/m; surface tension liquid-gas ([3]; 303.15 K): 24.08 ± 0.34 mN/m
